# Source: article PMC11564790 (Synthetic and Systems Biotechnology, 2024)
# Target: MBP-fused YpsR (1-179); YpsR-MBP; heading also 'YpeR' (Yersinia pseudotuberculosis, UniProt Q669I5)
# Conditions: read-out: Dissociation constant
# Sequence of MBP-fused YpsR (1-179); YpsR-MBP; heading also 'YpeR' (Q669I5 1-179 limits assumed): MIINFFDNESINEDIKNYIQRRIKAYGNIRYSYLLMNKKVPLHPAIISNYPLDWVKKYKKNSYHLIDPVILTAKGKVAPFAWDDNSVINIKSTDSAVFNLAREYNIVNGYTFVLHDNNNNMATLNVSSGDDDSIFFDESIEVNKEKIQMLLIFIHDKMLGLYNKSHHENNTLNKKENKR
row,SMILES,Kd
1,CCCC(=O)CC(=O)N[C@H]1CCOC1=O [3OC6],1.3 µM
2,CCCCCC(=O)CC(=O)N[C@H]1CCOC1=O [3OC8],24.2 µM
3,CCCCCCCC(=O)CC(=O)N[C@H]1CCOC1=O [3OC10],146 µM
4,CCCCCCCCCC(=O)CC(=O)N[C@H]1CCOC1=O [3OC12],130 µM
5,CCCCCCCCCCCC(=O)CC(=O)N[C@H]1CCOC1=O [3OC14],18.2 µM
6,CCCCCC(=O)N[C@H]1CCOC1=O [C6],6.6 µM
7,CCCCCCCC(=O)N[C@H]1CCOC1=O [C8],15.6 µM
8,CCCCCCCCCC(=O)N[C@H]1CCOC1=O [C10],21.3 µM
